This note sets out measurements from patent US11149316B2, “Methods for detecting inactivation of the homologous recombination pathway (BRCA1/2) in human tumors” (INSTITUT CURIE, priority 2013, dated 2021).

The test system of the assay is triple-negative breast tumors. As to the kind of experiment: Cisplatin treatment of patients with triple-negative breast tumors, response by Miller-Payne score (GSE28330; Cisplatin-1 and Cisplatin-2 trials). The class given is in vivo, human. The procedure: Two publically available data sets from clinical trial of Cisplatin treatment of patients with triple-negative breast tumors [GSE28330 GEO database][59] were processed and the number of LST_10 Mb was calculated for each tumor with good quality of measured profile. Genomic profiles were measured by two types of chip: Affymetrix Oncoscan 70K (Dataset 2) and Oncoscan 300K (Dataset 1). Information about mutational status of BRCA1/2 was available for some tumors. Response to treatment was measured by Miller-Payne score, where 4 and 5 were considered as “positive response”, while scores <4 were considered as “no response” [59] Case by case and summary results are presented in Table 2 and Tables 3-5 (statistical comparisons were performed by the Fisher exact test).
(i) TCGA cohort: 467 tumors with high quality SNP-array profile and available normal/tumor exome sequencing results in variant call format (vcf) from the TCGA Breast Invasive carcinoma dataset were used. (ii) In-house TNBC cohort: a series of 104 TNBC enriched in BRCAi germline mutated cased. (iii) the publically available data from Cisplatin-1 and Cisplatin-2 clinical trials cohorts: 54 TNBCs with suitable quality of Oncoscan (Affymetrix) array profile were obtained from public GEO repository GSE28330 (66).
HRD is linked to the response to platinum based chemotherapy. Birkbak et al. analyzed SNParray profiles from a series of 79 patients with TNBC, including 28 patients treated by cisplatin prior to surgery (Cisplatin-1 trial) and 51 patients treated with cisplatin in addition to bevacizumab (Cisplatin-2 trial) (59).

Take `N.N.[Cl][Pt][Cl]` [Cisplatin, cisplatin]: the “Non Responders (number of tumors)” value is reported as 8 (BRCA1/2 inactivated tumors) and 27 (NON BRCA1/2 or NA tumors). In addition, the “Responders (number of tumors)” value reads like this: (BRCA1/2 inactivated tumors) 9; (NON BRCA1/2 or NA tumors) 10. Also, the “Miller Payne Response Score 4 (CR), number of tumors” value is 7 (LST^hi tumors) and 1 (LST^lo tumors). Also, the “Miller Payne Response Score 5 (pCR), number of tumors” value reads like this: (LST^hi tumors) 11; (LST^lo tumors) 0. Moreover, the “Non Responders (Miller-Payne 0-3), number of tumors” value by setting is: (LST_high tumors) 15; (LST_low tumors) 20. Moreover, the “Responders (Miller-Payne 4-5), number of tumors” value is, setting by setting: (LST_high tumors) 18; (LST_high tumors, listed as cisplatin) 18/33; (LST_low tumors) 1; (LST_low tumors, listed as cisplatin) 1/21.
